These results are taken from patent US4877774A, “Administration of steroid hormones” (The United States of America as represented by the …, priority 1987, dated 1989).

The solubility is the dissolved amount per volume that the medium holds. Higher therefore signals a readily soluble substance.

In brackets after ≈: the same amount, converted by molar mass. Several values for one entry are separate records, joined by “and”; a condition that tells them apart may be missing. Identical values can stand only once.

For data set [1] the following is noted: human trial; cited from earlier work.
A short description of data set [2]: physchem. The protocol: The appropriate proportions in the mixture can be determined by examining the descending curvature of the Bs-type phase solubility of FIG. 1.
The appropriate mixture was determined by examining the descending curvature of the Bs-type phase solubility diagram, as shown in FIG. 1. […] The complex, which precipitated as a microcrystalline powder, was removed by filtration and dried under vacuum at room temperature for 24 hours.

The next data set deals with amylases of human saliva. The following applies: cited from earlier work.
The nature of data set [3]: physchem. The following applies: water. How it is done: The dissolution rates of testosterone alone or its release from complexes of interest were measured and compared with published data.

Take `OC[C@H]1O[C@@H]2O[C@H]3[C@H](O)[C@@H](O)[C@@H](O[C@H]4[C@H](O)[C@@H](O)[C@@H](O[C@H]5[C@H](O)[C@@H](O)[C@@H](O[C@H]6[C@H](O)[C@@H](O)[C@@H](O[C@H]7[C@H](O)[C@@H](O)[C@@H](O[C@H]8[C@H](O)[C@@H](O)[C@@H](O[C@H]1[C@H](O)[C@H]2O)O[C@@H]8CO)O[C@@H]7CO)O[C@@H]6CO)O[C@@H]5CO)O[C@@H]4CO)O[C@@H]3CO` [beta-cyclodextrin]: the “administration of testosterone, estradiol, or progesterone” value in data set [1] is reported as “marginal”.

For `OC[C@H]1O[C@@H]2O[C@H]3[C@H](O)[C@@H](O)[C@@H](O[C@H]4[C@H](O)[C@@H](O)[C@@H](O[C@H]5[C@H](O)[C@@H](O)[C@@H](O[C@H]6[C@H](O)[C@@H](O)[C@@H](O[C@H]7[C@H](O)[C@@H](O)[C@@H](O[C@H]8[C@H](O)[C@@H](O)[C@@H](O[C@H]9[C@H](O)[C@@H](O)[C@@H](O[C@H]1[C@H](O)[C@H]2O)O[C@@H]9CO)O[C@@H]8CO)O[C@@H]7CO)O[C@@H]6CO)O[C@@H]5CO)O[C@@H]4CO)O[C@@H]3CO` [gamma-cyclodextrin], the concentration in solution in “physchem [2]” (water) (solubility) was 168 mM (≈ 218 mg/mL). The “susceptibility to the amylases of human saliva” value with amylases of human saliva is listed as “susceptible”.

Turning to `C[C@]12CC[C@H]3[C@@H](CCC4=CC(=O)CC[C@@]43C)[C@@H]1CC[C@@H]2O` [testosterone], the solubility in “physchem [2]” (concentration of testosterone in water (without cyclodextrin), 25° C.) is 130 µM and 37 µg/mL; in “physchem [2]” (gamma-cyclodextrin, limit value of testosterone concentration, with gamma-cyclodextrin, 25° C.), 1210 µM and 350 µg/mL; in “physchem [2]” (gamma-cyclodextrin, maximal solubilization of testosterone, with gamma-cyclodextrin, 25° C.) it was 8700 µM and 2500 µg/mL; in “physchem [3]”, 37 µg/mL (≈ 128 µM).
